According to US20130040990A1, “SYNTHESIS OF DGJNAc FROM D-GLUCURONOLACTONE AND USE TO INHIBIT ALPHA-N-ACETYLGALACTOSAMINIDASES” (The Chancellor, Masters and Scholars of the University of …, priority 2010, published 2013):

Legend:
[1] = molecular target: β-hexosaminidase from human placenta; test: Inhibition of β-hexosaminidase from human placenta; assay type: biochemical; settings: for Ki: 1L non-competitive, 1D competitive
[2] = tested on: α-N-acetylgalactosaminidases; test: Inhibition of α-N-acetylgalactosaminidases (source not given); assay type: biochemical
[3] = molecular target: T1, coffee bean α-galactosidase (Coffea arabica, UniProt Q42656); test: biochemical
T1 construct: coffee bean α-galactosidase; from tissue; host or cells: coffee bean

β-hexosaminidases = settings: literature statement; cited from earlier work
GalNAcases = settings: literature statement; cited from earlier work
[4] = molecular target: T2, α-N-acetylgalactosaminidase (GalNAcase) from chicken liver (Gallus gallus, UniProt Q90744); test: Inhibition of GalNAcase from chicken liver; assay type: biochemical; settings: competitive inhibition
T2 construct: from tissue; host or cells: chicken liver
T2 sequence (Q90744 1-405): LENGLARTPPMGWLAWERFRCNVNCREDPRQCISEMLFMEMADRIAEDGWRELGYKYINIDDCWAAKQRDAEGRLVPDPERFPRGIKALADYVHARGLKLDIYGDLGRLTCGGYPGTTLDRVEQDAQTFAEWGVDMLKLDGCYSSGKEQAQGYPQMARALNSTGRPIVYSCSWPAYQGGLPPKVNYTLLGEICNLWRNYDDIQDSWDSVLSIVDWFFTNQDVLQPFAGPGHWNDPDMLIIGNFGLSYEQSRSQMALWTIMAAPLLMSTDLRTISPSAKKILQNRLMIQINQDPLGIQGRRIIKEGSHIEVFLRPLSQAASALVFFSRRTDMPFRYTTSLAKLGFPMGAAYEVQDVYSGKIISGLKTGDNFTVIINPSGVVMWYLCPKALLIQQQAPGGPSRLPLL

[5] = molecular target: β-hexosaminidase from bovine kidney; test: Inhibition of β-hexosaminidase from bovine kidney; assay type: biochemical
[6] = molecular target: β-hexosaminidase from Jack bean; test: Inhibition of β-hexosaminidase from Jack bean; assay type: biochemical
[7] = molecular target: β-hexosaminidase from HL-60; test: Inhibition of β-hexosaminidase from HL-60; assay type: biochemical
[8] = molecular target: α-N-acetylgalactosaminidase (GalNAcase) from Charonia lampas; test: Inhibition of GalNAcase from Charonia lampas; assay type: biochemical; settings: competitive inhibition

T1 sequence (Q42656 16-378): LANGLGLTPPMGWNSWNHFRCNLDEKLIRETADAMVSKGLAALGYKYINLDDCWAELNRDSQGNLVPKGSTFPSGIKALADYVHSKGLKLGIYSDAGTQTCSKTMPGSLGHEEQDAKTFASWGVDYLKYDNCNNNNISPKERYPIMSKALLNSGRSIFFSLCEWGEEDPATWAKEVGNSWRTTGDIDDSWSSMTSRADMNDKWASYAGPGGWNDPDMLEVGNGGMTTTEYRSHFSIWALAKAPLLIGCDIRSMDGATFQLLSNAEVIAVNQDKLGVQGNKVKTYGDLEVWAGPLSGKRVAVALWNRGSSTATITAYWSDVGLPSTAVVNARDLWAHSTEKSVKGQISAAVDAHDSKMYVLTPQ

Ki [4] [µM] | IC50 [5] [µM] | IC50 [6] [µM] | IC50 [1] [µM] | IC50 [7] [µM] | Ki [8] [µM] | IC50 [3] [µM] | Compound | Ki [1] [µM] | inhibition of α-N-acetylgalactosaminidases [2] | inhibition of coffee bean α-galactosidase [3] | inhibition of β-hexosaminidases (β-hexosaminidases) | inhibition of GalNAcases (GalNAcases)
– | – | – | – | – | – | – | CC(=O)NC1CNC(CO)C(O)C1O [L-DGJNAc 1L] | 1100 | no inhibition | no inhibition | – | –
– | – | – | – | – | – | – | CC(=O)N[C@H]1c2nc(CC(=O)O)cn2[C@H](CO)[C@H](O)[C@@H]1O [nagstatin 4, nagstatin] | – | – | – | potent inhibitor | does not inhibit
0.081 | 4.2 | 1.8 | 8.3 | 2.2 | 0.136 | 64 | CC(=O)N[C@H]1CN[C@H](CO)[C@H](O)[C@@H]1O [DGJNAc 1D, 2-acetamido-1,2-dideoxy-D-galacto-nojirimycin] | 2.2 | – | – | – | –
